# In EP3733658B1, “PRENYLATED BENZOPYRANES AS PPAR AGONISTS” (Universitat de València, priority 2017, dated 2019):
# How the values were obtained:
# [1] = Treatment of ob/ob mice: body weight gain and feed efficiency; settings: oral, 4 days
# Text: Protocols conforming to European Union guidelines for the care and protection of animals were approved by the Ethics Committee of the University of Valencia. All efforts were made to minimize the number of animals used and their suffering. ob/ob mice have a leptin deficiency, and are associated with hyperphagia and obesity, as well as hyperglycemia and hyperinsulinemia. This study used male ob/ob mice (C57BU6J) (Charles River laboratories, Chatillon-sur-Chalaronne, France).
# The mice were housed in individual cages in a room with controlled temperature, humidity and light. […] The mice were allowed to acclimate for ten days prior to the study.
# The control ob/ob mice were just administered with vehicle (physiological saline solution with HEC 1%). […] The compounds were prepared freshly each day in a 1% suspension of HEC for oral administration. Randomization was performed based on the glycaemia values on day 0. For the duration of the experiment the amount of food ingested and the body weight were determined daily for each mouse. Every day between 9:00 and 11:00 a.m. (prior to treatment) blood glucose levels were measured using (Contour next USB Blood glucose meter, BAYER, Basel, Switzerland). On the fifth day of the experiment the mice were anesthesized with isofluorane and blood was extracted by cardiac puncture. The blood was collected in tubes containing EDTA or heparin. Plasma samples were obtained by centrifugation and stored at -80°C. After obtaining the samples, the animals were sacrificed by cervical dislocation and subsequently different organs such as white adipose tissue (WAT) and liver were extracted for additional studies. The organs were weighed and frozen for subsequent RNA analysis and to conduct histological studies
# The weight gain at the end of treatment was calculated (d5-d0) (Figure 14A).
# HUVEC = test: Annexin V / propidium iodide flow cytometry of apoptosis and survival, HUVEC; assay type: cell-based, human; settings: tested concentrations including 100 µM, compared with the vehicle
# Procedure: In addition, the apoptosis and survival rate for human neutrophils and HUVEC was determined by double staining with annexin V and propidium iodide (PI) by flow cytometry.
# Cytofluorometric analysis of apoptosis and survival. The kit FITC Annexin V Apoptosis Detection kit (BD Bioscience, San Jose, CA) was used. The staining protocol and all the reagents were supplied with the commercial kit. HUVEC were separated from the culture flasks by accutase (StemPro® Accutase® Cell dissociation reagent, Thermofischer Scientific Waltham, MA). Both cell types were incubated at 37°C for 24h in the presence or absence of the test compounds. Confluent HUVEC and freshly isolated neutrophils were washed, resuspended in binding buffer 1x (1 × 10^6 cells/mL) and stained with annexin V conjugated with FITC and propidium iodide (PI) as described in the manufacturer's instructions. The cells were analyzed in a BD FACSVerse Flow Cytometer (BD Biosciences, San Jose, CA) and differentiated as early apoptosis cells (annexin V^+ and PI^-), late apoptosis cells and/or necrotic cells (annexin V^+ and PI^+), and live cells (annexin V^- and PI^-).
# [2] = Treatment of ob/ob mice: plasma metabolites (cholesterol, HDL-c, triglycerides, free fatty acids, ALT, AST); assay type: in vivo; parameters: blood levels of free fatty acids: unit not given here; settings: oral, 4 days; for triglyceride levels in plasma: control 137 mg/dL
# Procedure: […]. […] […].
# Free fatty acids (FFA) in plasma, and the enzymes aspartate aminotransferase (AST) and alanine aminotransferase (ALT) were determined with a colorimetric assay kit (Sigma-Aldrich, Madrid, Spain). In addition the plasma lipid levels for total cholesterol and triglycerides (TG) were measured by enzymatic methods (WAKO, Cape Charles, VA). The concentration of HDLcholesterol (HDL-c) was also determined with the same method used to measure total cholesterol, after precipitating the apolipoprotein-B (apoB) with dextran sulphate/MgCl2 (Sigma-Aldrich, Madrid, Spain) as previously described (Zieske et al., 2005).
# ob/ob mice = test: Treatment of ob/ob mice: blood glucose; assay type: in vivo
# [3] = system: mononuclear cell adhesion induced by TNFα; test: Mononuclear cell adhesion to TNFα-stimulated HUVEC transfected with control or RXRα, PPARα, PPARγ specific siRNA; assay type: cell-based, human; settings: 20 h
# RXRα/PPARγ interaction = molecular target: T1, RXRα/PPARγ interaction (Homo sapiens, UniProt P37231); test: Immunoprecipitation of PPARγ followed by Western blot for RXRα in HUVEC; assay type: cell-based; settings: pretreated HUVEC
# T1 construct: endogenous in cells; host or cells: HUVEC
# T1 sequence (P37231 29-505 limits assumed): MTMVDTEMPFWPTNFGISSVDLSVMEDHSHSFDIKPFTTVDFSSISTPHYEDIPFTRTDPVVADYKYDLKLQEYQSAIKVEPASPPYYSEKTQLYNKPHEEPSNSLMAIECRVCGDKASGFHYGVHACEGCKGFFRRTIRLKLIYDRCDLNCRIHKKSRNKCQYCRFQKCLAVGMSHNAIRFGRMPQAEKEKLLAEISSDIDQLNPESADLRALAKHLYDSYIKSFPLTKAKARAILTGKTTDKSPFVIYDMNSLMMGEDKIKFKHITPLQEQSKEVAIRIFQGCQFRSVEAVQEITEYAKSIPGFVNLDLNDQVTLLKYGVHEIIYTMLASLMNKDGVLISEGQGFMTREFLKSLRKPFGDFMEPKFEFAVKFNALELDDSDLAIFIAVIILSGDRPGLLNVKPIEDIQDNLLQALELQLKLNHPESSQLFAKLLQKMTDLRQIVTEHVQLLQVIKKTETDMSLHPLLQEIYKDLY
# T1 sequence (P19793 1-462 partner): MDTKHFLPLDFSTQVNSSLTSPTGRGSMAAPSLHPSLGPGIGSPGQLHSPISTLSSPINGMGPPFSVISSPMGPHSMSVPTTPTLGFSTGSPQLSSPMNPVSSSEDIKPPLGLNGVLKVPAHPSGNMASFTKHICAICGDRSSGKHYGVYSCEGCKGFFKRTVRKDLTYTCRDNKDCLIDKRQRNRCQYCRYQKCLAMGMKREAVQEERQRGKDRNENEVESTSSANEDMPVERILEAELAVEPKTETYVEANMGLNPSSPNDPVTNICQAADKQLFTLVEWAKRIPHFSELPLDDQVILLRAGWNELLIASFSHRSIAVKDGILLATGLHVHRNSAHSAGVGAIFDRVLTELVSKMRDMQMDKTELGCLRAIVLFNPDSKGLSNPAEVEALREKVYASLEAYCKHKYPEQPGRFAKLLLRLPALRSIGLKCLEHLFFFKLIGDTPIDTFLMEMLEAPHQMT
# Procedure: For the immunoprecipitation, the protein extracts were obtained in 50 mM Tris-HCl (pH 8), 150 mM NaCl, 1% Nonidet P-40 and protease (1 mM PMSF, 40 µg/mL aprotinin and 40 µg/mL leupeptin) and phosphatase inhibitors. Then the protein extracts (~200 µg) were incubated with 5 µg of an antibody against PPARγ. Immunocomplexes were precipitated using an anti-rabbit IgG beads (cat# 8800, eBioscience, San Diego, CA) and suspended in a sample buffer with 50 mM dithiotreitol (DTT). Western blot was performed with an antibody against RXRα and the membranes were incubated with the secondary HRP-conjugate Rabbit TrueBlot (eBioscience, San Diego, CA) as secondary antibody. Chemoluminescence signals were developed with ECL (GE Healthcare, Madrid, Spain).
SMILES,Weight gain (d5-d0) ([1]; 30 mg/Kg/d) [g],Feed efficiency (ratio of weight gain and food consumed) [1],weight gain compared to the control group ([1]; doses of 10 and 30 mg/Kg/d),toxicity (HUVEC),triglyceride levels in plasma ([2]; 10 mg/Kg/d) [mg/dL],triglyceride levels in plasma ([2]; 30 mg/Kg/d) [mg/dL],"blood levels of free fatty acids ([2]; 30 mg/Kg/d, control 0.67)",triglyceride levels in plasma (in words) [2],"decrease of AST level compared to the ob/ob control group ([2]; plasma, 30 mg/Kg/d) [%]","increase of total cholesterol levels with respect to the control group ([2]; plasma, 30 mg/Kg/d) [%]",ALT level ([2]; plasma),"HDL-c with respect to the control group ([2]; plasma, compound 9 10 and 30 mg/Kg/d, WY-14643 30 mg/Kg/d)","glucose blood level, day 0 (before treatment) (ob/ob mice; group given 30 mg/Kg/d) [mg/dL]","glucose blood level after 4 days (ob/ob mice; oral, 30 mg/Kg/d) [mg/dL]","decrease in glucose blood levels compared to day 0 (ob/ob mice; oral, 30 mg/Kg/d, after 4 days) [%]","inhibitory response on mononuclear cell adhesion after PPARα silencing ([3]; PPARα siRNA HUVEC, polycerasoidol 10 µM, rosiglitazone 1 µM)","inhibitory response on mononuclear cell adhesion in HUVEC deficient in PPARγ ([3]; PPARγ siRNA HUVEC, 10 µM)","inhibitory effect on mononuclear cell adhesion after RXRα silencing ([3]; RXRα specific siRNA HUVEC, 10 µM)","TNFα-induced adhesion of mononuclear cells ([3]; control siRNA transfected HUVEC, polycerasoidol 10 µM, rosiglitazone 1 µM)",RXRα/PPARγ interaction (RXRα/PPARγ interaction)
CCOC(=O)CCC(C)=CCCC1(C)CCc2cc(OCc3ccc(F)cc3)ccc2O1 (centres unmarked) [Compound 9],1.88 ± 0.52,no observable differences,did not cause significant differences,absence of toxicity,122,101,0.25,"decrease of triglyceride levels in plasma, although not in a significant manner",28,50,reduced,significantly increased,261,194,20,–,–,–,–,–
"C/C(=C\CCC1(C)CCc2cc(O)cc(C)c2O1)CC/C=C(\C)C(=O)O (centres unmarked) [Polycerasoidol, 1, polycerasoidol]",–,–,–,–,–,–,–,–,–,–,–,–,–,–,–,not affected,annulled,completely suppressed,inhibited,increased RXRα/PPARγ interaction
